Measurements from article PMC4060991, “The Human Orphan Nuclear Receptor Tailless (TLX, NR2E1) Is Druggable” (PLoS ONE, 2014).

Columns and labels:
human LXRβ LBD = target: T1, human LXRβ LBD (Homo sapiens, UniProt P55055); assay: DSF on purified LXRβ LBD; assay type: binding; conditions: compound 500 µM; unliganded Tm ∼39°C
T1 construct: human LXRβ LBD (Liver X Receptor beta, a.a. 226–460) was expressed; His6 followed by TEV protease cleavage site (N); made in house; host or cells: E. coli BL21 (DE3) star
T1 sequence (P55055 226-460): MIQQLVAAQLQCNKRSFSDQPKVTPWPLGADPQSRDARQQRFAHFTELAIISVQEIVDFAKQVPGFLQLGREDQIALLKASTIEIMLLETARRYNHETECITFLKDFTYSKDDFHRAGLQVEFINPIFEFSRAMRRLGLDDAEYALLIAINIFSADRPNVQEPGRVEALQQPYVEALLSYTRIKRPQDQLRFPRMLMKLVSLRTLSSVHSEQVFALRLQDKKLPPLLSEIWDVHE
Description: Protein stability was assessed with DSF in absence or presence of test compounds in a LightCycler 480 II qRT-PCR Detection System (Roche) in 384-well format. Sypro-Orange dye (Life Technologies) was used to monitor fluorescence, with filters for fluorescence excitation at 465 nm and for fluorescence emission at 610 nm. […] Tested sample mixtures were heated from 25°C to 96°C at a rate of 0.05°C/sec with 11 acquisitions per °C. Each compound was tested in duplicates. The melting temperature (Tm) for each sample was deduced by the ThermoQ Analytical software (HMRI) from the first derivative of the corresponding denaturation curve generated by the LightCycler 480 software. The same protocol was applied to investigate the stability of purified ERβ and LXRβ LBDs in presence or absence of the compounds. The optimal final concentrations for these experiments were 0.02 mg/mL for ERβ LBD and 0.20 mg/mL for LXRβ LBD. All DSF-based analyses were performed using freshly purified protein.

human RXRα LBD = target: T2, human RXRα LBD (Homo sapiens, UniProt P19793); assay: GAL4 DBD-RXRα LBD luciferase transactivation assay in HeLa cells; assay type: cell-based; conditions: 10 µM, 24 h, alone or in competition with 9-cis retinoic acid 100 nM
T2 construct: expressed in transfected cells; host or cells: HeLa
T2 sequence (P19793 225-462): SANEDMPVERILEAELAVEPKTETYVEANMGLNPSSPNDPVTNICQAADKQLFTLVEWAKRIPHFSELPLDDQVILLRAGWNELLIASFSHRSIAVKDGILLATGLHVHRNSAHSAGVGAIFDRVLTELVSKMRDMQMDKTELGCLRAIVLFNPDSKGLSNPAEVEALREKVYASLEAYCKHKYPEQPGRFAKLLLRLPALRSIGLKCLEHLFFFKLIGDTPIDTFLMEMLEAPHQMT
Description: We cloned human RXRα LBD (residues 225–462) in the vector pBIND as described above. Transient co-transfections of HeLa cells with vectors encoding either Gal4DBD or Gal4 DBD-RXRα LBD fusion (both at 10 ng/well), pGL4.35 reporter gene (200 ng/well) and renilla luciferase gene (10 ng/well, internal control) were performed in batches of 10^5 cells seeded into 12-well tissue culture plates. The transfections were done using TransFectin Lipid Reagent (Biorad). Three hours after the transfections, cells were treated with either DMSO (0.1%, control) or compounds ccrp1, ccrp2 or ccrp3 at 10 µM, in the absence or the presence of 9-cis retinoic acid (RA, 100 nM). Following 24 h incubation, luciferase activities in each well were assessed as described above. Cells transfected with Gal4 DBD vector served as a control for RXR independent effects.

COUP-TFII LBD = target: T3, COUP-TFII LBD (Homo sapiens, UniProt P24468); assay: GAL4 DBD-COUP-TFII LBD luciferase transactivation assay in HeLa cells; assay type: cell-based; conditions: 10 µM, 24 h, alone or in competition with 9-cis retinoic acid 5 µM
T3 construct: expressed in transfected cells; host or cells: HeLa
T3 sequence (P24468 177-403 limits assumed): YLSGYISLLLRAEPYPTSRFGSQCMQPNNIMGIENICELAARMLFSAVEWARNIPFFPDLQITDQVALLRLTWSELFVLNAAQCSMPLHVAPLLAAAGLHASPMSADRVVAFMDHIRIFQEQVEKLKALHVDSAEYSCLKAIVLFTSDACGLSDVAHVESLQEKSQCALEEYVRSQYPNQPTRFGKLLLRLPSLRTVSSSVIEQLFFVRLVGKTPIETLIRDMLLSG
Description: For the transactivation assays with the GAL4 DBD-COUP-TFII LBD plasmid ([28], gift from Dr. H. Eric Xu, Van Andel Institute), we transiently transfected in batches of 10^5 HeLa cells seeded into 12-well tissue culture plates vectors encoding either Gal4 DBD or Gal4 DBD-COUP-TFII LBD fusion (both at 100 ng/well), pGL4.35 reporter gene (200 ng/well) and renilla luciferase gene (100 ng/well, internal control). At 24 h after the transfections, cells were treated with either DMSO (0.1%, control) or compounds ccrp1, ccrp2 or ccrp3 at 10 µM, in the absence or the presence of 9-cis retinoic acid (RA, 5 µM). Following 24 h incubation, luciferase activities in each well were assessed as described above. Cells transfected with Gal4 DBD vector served as a control for COUP-TFII independent effects.

HeLa cells = assay: Toxicity observed in transfection experiments; assay type: cell-based, human; conditions: tested at different concentrations
Description: HeLa cells were maintained in D-MEM High Glucose (Hyclone) supplemented with 10% charcoal:dextran stripped FBS (Hyclone) and 1x Pen/Strep antibiotics (Life Technologies). Transient transfections were carried out in batches on 100,000 cells seeded into 12-well tissue culture plates. The co-transfections were performed using the TransFectin Lipid reagent (Bio-Rad) with approximately 10 ng/well of Gal4 DBD (gift from Phuong Nguyen, Fletterick Laboratory, UCSF) or GAL4-TLX LBD, 10 ng/well of renilla luciferase gene (Promega) for internal control and 200 ng/well of pGL4.35 reporter gene (containing an upstream Gal4 Upstream Activator Sequence and the luciferase gene, Promega). Approximately, 3 h after transfections, cells were treated with compounds of interest at different concentrations, or solvent (DMSO, 0.1%) in DMEM containing no fetal bovine serum or antibiotics. After a 16-h incubation, luciferase activities were assessed using Dual Luciferase assay reagent (Promega). Luciferase activities were calculated by normalizing firefly luciferase to renilla luciferase signal. Normalized luciferase activities were then represented relative to control (DMSO-treated cells). Cells transfected with Gal4 DBD vector served as a control for TLX independent effects.

ERβ LBD = ERβ LBD (Homo sapiens, UniProt Q92731); assay: Gal4 DBD-ERβ LBD luciferase transactivation assay in HeLa cells; assay type: cell-based; parameters: vectors encoding either Gal4 DBD or Gal4 DBD-ERβ LBD fusion; expressed in transfected cells; host or cells: HeLa; conditions: 10 µM, 24 h, alone or in competition with E2 100 nM
Sequence of ERβ LBD (Q92731 264-498 limits assumed): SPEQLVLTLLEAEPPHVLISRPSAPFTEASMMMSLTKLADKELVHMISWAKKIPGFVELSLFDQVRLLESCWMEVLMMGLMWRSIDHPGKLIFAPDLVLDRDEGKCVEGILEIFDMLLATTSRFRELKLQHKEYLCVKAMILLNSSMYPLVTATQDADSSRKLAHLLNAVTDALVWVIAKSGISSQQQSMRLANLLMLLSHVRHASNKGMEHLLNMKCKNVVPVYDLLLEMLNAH
Description: For ERβ, transient cotransfections of HeLa cells with vectors encoding either Gal4 DBD or Gal4 DBD-ERβ LBD fusion (gift from Dr. Stefan Andersson, University of Houston, deceased), both at 10 ng/well, constructs for Gal4-E1B promoter linked to a luciferase reporter gene (200 ng/well) and renilla luciferase gene (10 ng/well, internal control) were performed in batches of 10^5 cells seeded into 12-well tissue culture plates. At 24 h after the transfections, cells were treated with either DMSO (0.1%, control) or ccrp1; ccrp2 and ccrp3 at 10 µM, in the presence or absence of estradiol (E2, 100 nM), in the medium containing no fetal bovine serum. Following 24 h incubation, luciferase activities in each well were assessed as described above. Cells transfected with Gal4 DBD vector served as a control for ERβ independent effects.

| SMILES | melting temperature shift of LXRβ LBD (human LXRβ LBD) | effect on RXRα luciferase activity (human RXRα LBD) | effect on COUP-TFII luciferase activity (COUP-TFII LBD) | toxicity (HeLa cells) | effect on ERβ luciferase activity (ERβ LBD) |
| --- | --- | --- | --- | --- | --- |
| CC(C)c1c(CN(C)C(C)Cc2ccccc2)n(C)n(-c2ccccc2)c1=O (stereo not drawn) [ccrp1, Famprofazone] | Neither compound demonstrates any significant effect on the melting temperatures | No effect on luciferase activity was detected | No effect on luciferase activity was detected | None of the three compounds displayed toxicity | No effect on luciferase activity was detected |
| Cc1cc(C(=O)N2CCN(C(c3ccccc3)c3ccccc3)CC2)nn1C [ccrp2, 1-(1,5-dimethylpyrazole-3-carbonyl)-4-(diphenylmethyl)piperazine] | Neither compound demonstrates any significant effect on the melting temperatures | No effect on luciferase activity was detected | No effect on luciferase activity was detected | None of the three compounds displayed toxicity | No effect on luciferase activity was detected |
| CC(=O)[C@H]1CC[C@H]2[C@@H]3C=CC4=CC(=O)CC[C@@]4(C)[C@@H]3CC[C@]12C [ccrp3, Dydrogesterone] | Neither compound demonstrates any significant effect on the melting temperatures | No effect on luciferase activity was detected | No effect on luciferase activity was detected | None of the three compounds displayed toxicity | No effect on luciferase activity was detected |
